Assay [1] deals with T1, HBV C150Bo capsid protein (HBV CA protein) (Hepatitis B virus genotype D subtype adw, UniProt P03147, C107A/C48A/C61A/R150C).
T1 construct: amino acids 1-150, C49A, C61A, C107A, 150C; made in house; host or cells: E. coli
The experiment in a line: HBV assembly assay (fluorescence quenching in vitro capsid assembly). Type of assay: biochemical. The text has this: The fluorescence quenching in vitro assembly HBV assay was developed according to a method described by Zlotnick and coworkers (Nature Biotechnology 2006, 24:358). The assay is based on the observation that the C-termini of the HBV core protein cluster together during capsid formation. This assay utilizes a mutant C150 HBV capsid protein where all wild-type cysteines are mutated to alanines, but a C-terminal cysteine residue is preserved and is labeled with fluorescent BoDIPY-FL dye. […] Thus, the assay measures the ability and potency of test compounds to modulate capsid assembly by monitoring the fluorescence of the labeled capsid C150Bo protein.
In a typical assay, the mutant HBV C150 protein (amino acids 1-150, C49A, C61A, C107A, 150C) is cloned into a T7 RNA-polymerase based expression vector, expressed in E. coli and purified to homogeneity as a dimer. The purified HBV core protein is desalted and labeled with BODIPY-FL Dye.
In a non-limiting embodiment, the assembly assay is conducted in 96-well plate format. The assembly reactions are carried out in 50 mM Hepes buffer, pH 7.5 and 150 mM NaCl. The compounds are pre-incubated with the HBV CA protein for 15 min, and the assembly reactions are initiated by addition of NaCl. The reaction is allowed to continue for 1 hour at room temperature.
To determine the effect on capsid assembly, each test compound is initially screened at 4 different concentrations: 10 μM, 3 μM, 1 μM and 0.3 μM in duplicates. […] Identified primary hits are confirmed in follow-up studies as described elsewhere herein. […] EC50 values for test compounds are determined via analysis of the dose-response curve.
Selected compounds of the invention were assayed in the HBV assembly assay, as described elsewhere herein. The assembly assay was conducted in 96-well plate format. The assembly reactions were carried out in 50 mM Hepes buffer, pH 7.5 and 150 mM NaCl. The compounds were pre-incubated with the HBV CA protein for 15 min, and the assembly reactions were initiated by addition of NaCl. The reaction was allowed to continue for 1 hour at room temperature.
To determine the effect on capsid assembly, each test compound was initially screened at 4 different concentrations: 10 μM, 3 μM, 1 μM and 0.3 μM in duplicates.

The subject of assay [2] is HBV replication in HepG2-2.2.15 cells. The experiment in a line: Dot-blot assay of HBV replication (HBV DNA levels). The settings on record: Hepatitis B virus, HepG2 2.2.15, 144 h, read-out: Activity in dot-blot-assay (EC50, reduction in HBV DNA levels).
Method: In the first anti-viral assay, the ability of compounds to inhibit HBV replication in an HBV-producing hepatoma cell line using the dot-blot method is evaluated.
Briefly, confluent monolayers of HepG2-2.2.15 cells are incubated with complete medium containing various concentrations of a test compound. Three days later, the culture medium is replaced with fresh medium containing the appropriately diluted test compound. Six days following the initial administration of the test compound, the cell culture supernatant is collected, and cell lysis is performed. The samples are applied onto Nylos membranes and DNA is immobilized to the membrane by UV cross-linking. After pre-hybridization, the HBV probe is added and the hybridization is performed overnight. The membranes are exposed to the Kodak films; antiviral activity is calculated from the reduction in HBV DNA levels (EC50).
In the first anti-viral assay, the ability of compounds to inhibit HBV replication in an HBV-producing hepatoma cell line using the dot-blot method was evaluated.
Confluent monolayers of HepG2-2.2.15 cells were incubated with complete medium containing various concentrations of a test compound. Three days later, the culture medium was replaced with fresh medium containing the appropriately diluted test compound. Six days following the initial administration of the test compound, the cell culture supernatant was collected, and cell lysis was performed. The samples were applied onto Nylos membranes and DNA was immobilized to the membrane by UV cross-linking. After pre-hybridization, the HBV probe was added and the hybridization was performed overnight. The membranes were exposed to the Kodak films; antiviral activity was calculated from the reduction in HBV DNA levels (EC50).

For orientation: EC50 means the concentration needed to bring the measured effect to its halfway point.

T1 sequence (P03147 1-150 C48A/C61A/C107A/R150C): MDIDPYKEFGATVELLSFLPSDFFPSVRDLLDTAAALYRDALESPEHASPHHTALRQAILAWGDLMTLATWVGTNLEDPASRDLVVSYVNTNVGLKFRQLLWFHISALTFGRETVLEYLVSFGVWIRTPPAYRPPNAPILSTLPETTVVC

Turning to `O=C(Nc1ccc(F)c(Cl)c1)c1cc(S(=O)(=O)N2CCC(O)CC2)cc2[nH]ccc12` [Compound 949], the EC50 in assay [1] and in assay [2] was under 10 µM in each case.
For the molecule `O=C(Nc1cc(F)c(F)c(F)c1)c1cc(S(=O)(=O)N2CCC(O)CC2)cc2[nH]ccc12` [Compound 1287], in assay [1], the EC50 was under 10 µM.
Take `O=C(Nc1ccc(F)c(F)c1)c1cc(S(=O)(=O)N2CCC(O)CC2)cc2[nH]ccc12` [Compound 1288]: the EC50 in assay [2] was under 10 µM.
Consider `O=C(Nc1ccc(F)c(Cl)c1)c1cc(S(=O)(=O)N2CCC(CO)C(O)C2)cc2[nH]ccc12` (stereo not shown) [Compound 1290], for which the EC50 in assay [2] was under 10 µM.
`O=C(Nc1cc(F)c(F)c(F)c1)c1cc(S(=O)(=O)N2CCC(CO)C(O)C2)cc2[nH]ccc12` (stereo not shown) [Compound 1291] yielded an EC50 in assay [1] of under 10 µM.
Still for that read-out and setting: as for `O=C(Nc1ccc(F)c(F)c1)c1cc(S(=O)(=O)N2CCC(CO)C(O)C2)cc2[nH]ccc12` (stereo not shown) [Compound 1292], the figure is under 10 µM.
As to `O=C(Nc1ccc(F)c(Cl)c1)c1cc(S(=O)(=O)N2CC(O)C(F)C2)cc2[nH]ccc12` (stereo not shown) [Compound 1294], the EC50 in assay [1] and in assay [2] was under 10 µM throughout.
Regarding `O=C(Nc1ccc(F)c(F)c1)c1cc(S(=O)(=O)N2CC(O)C(F)C2)cc2[nH]ccc12` (stereo not shown) [Compound 1296], the EC50 in assay [1] is under 10 µM.
Take `O=C(Nc1ccc(F)c(Cl)c1)c1cc(S(=O)(=O)N2CC(O)C2)cc2[nH]ccc12` [Compound 1298]: in assay [2], the EC50 was under 10 µM.
Molecule `O=C(Nc1cc(F)c(F)c(F)c1)c1cc(S(=O)(=O)N2CC(O)C2)cc2[nH]ccc12` [Compound 1299] had an EC50 in assay [1] of under 10 µM.
For the molecule `O=C(Nc1ccc(F)c(F)c1)c1cc(S(=O)(=O)N2CC(O)C2)cc2[nH]ccc12` [Compound 1300], the 50% effective concentration (EC50) in assay [1] and in assay [2] was under 10 µM throughout.
`O=C(Nc1ccc(F)c(Cl)c1)c1cc(S(=O)(=O)N2CCC(O)(CO)CC2)cc2[nH]ccc12` [Compound 1302]: the EC50 in assay [2] is under 10 µM.
For the molecule `O=C(Nc1cc(F)c(F)c(F)c1)c1cc(S(=O)(=O)N2CCC(O)(CO)CC2)cc2[nH]ccc12` [Compound 1303], the EC50 in assay [1] is under 10 µM.
In assay [1], `O=C(Nc1ccc(F)c(F)c1)c1cc(S(=O)(=O)N2CCC(O)(CO)CC2)cc2[nH]ccc12` [Compound 1304] had an EC50 of under 10 µM.
For `O=C(Nc1ccc(F)c(Cl)c1)c1cc(S(=O)(=O)N2CCC(O)CC2)c2[nH]cnc2c1` [Compound 1472], in assay [2], the EC50 was under 10 µM.
Consider `NC1CCN(S(=O)(=O)c2cc(C(=O)Nc3cc(F)c(F)c(F)c3)c3cc[nH]c3c2)CC1` [Compound 1508], for which the EC50 in assay [1] and in assay [2] was under 10 µM in each case.
Regarding `COCC1(O)CCN(S(=O)(=O)c2cc(C(=O)Nc3cc(F)c(F)c(F)c3)c3cc[nH]c3c2)CC1` [Compound 1533], the concentration giving a half-maximal response (EC50) in assay [1] and in assay [2] was under 10 µM in each case.
Consider `COCC1(O)CCN(S(=O)(=O)c2cc(C(=O)Nc3ccc(F)c(Cl)c3)c3cc[nH]c3c2)CC1` [Compound 1534], for which, in assay [1], the EC50 was under 10 µM.
As for `COCC1(O)CCN(S(=O)(=O)c2cc(C(=O)Nc3ccc(F)c(F)c3)c3cc[nH]c3c2)CC1` [Compound 1535], the EC50 in assay [1] and in assay [2] was under 10 µM in each case.
Regarding `COC1(CO)CCN(S(=O)(=O)c2cc(C(=O)Nc3cc(F)c(F)c(F)c3)c3cc[nH]c3c2)CC1` [Compound 1536], in assay [1], the EC50 is under 10 µM.
For `COC1(CO)CCN(S(=O)(=O)c2cc(C(=O)Nc3ccc(F)c(Cl)c3)c3cc[nH]c3c2)CC1` [Compound 1537], the EC50 in assay [2] was under 10 µM.
For the molecule `COC(=O)C1=C(C)NC(c2ccccn2)=NC1c1ccc(F)cc1Cl` (stereo not shown) [HAP-1, reference compound], the “EC50 of control compounds in assembly assay” value in assay [1] (control compounds) was “consistent with the literature”.

The values are drawn from patent publication US9579313B2, “Hepatitis B antiviral agents” (Novira Therapeutics, Inc., priority 2013, dated 2017).
